Where two headings read alike, the source gives them in different places.

The values below come from patent publication US20230010108.

For this series the following is noted: ester bond, 2 steps.

Take `COCCOCCOCCOCCOCCOCCOCCOCCOCCOCC(=O)NCCCC[C@@H]1NC(=O)[C@@H](NC(=O)CCCN2C(=O)C=CC2=O)[C@@H](NC(=O)CCCN2C(=O)C=CC2=O)C(=O)N[C@@H](CCCCNC(=O)COCCOCCOCCOCCOCCOCCOCCOCCOCCOC)C(=O)NCCCC(=O)Nc2cc(C[C@@H](C[C@H](C)C(=O)OC(C)(C)C)NC(=O)OC(C)(C)C)ccc2OC(=O)CCCNC1=O`: for the setting “from (7S,10R,11S,14S)-10,11-bis(4-(2,5-dioxo-2,5-dihydro-1H-pyrrol-1-yl)butanamido)-6,9,12,15-tetraoxo-7,14-bis(31-oxo-2,5,8,11,14,17,20,23,26,29-decaoxa-32-azahexatriacontan-36-yl)-5,8,13,16-tetraazaicosane-1,20-dioic acid + (2S,4R)-tert-butyl 5-(3-amino-4-hydroxyphenyl)-4-((tert-butoxycarbonyl)amino)-2-methylpentanoate?, 24-membered ring”, the ring closure, isolated yield amounted to 52%.

In the case of `CC(C)[C@@H]1NC(=O)[C@H](C)NC(=O)CCCNC(=O)[C@H](NC(=O)CN2C(=O)C=CC2=O)[C@H](NC(=O)CN2C(=O)C=CC2=O)C(=O)NCCCC(=O)Oc2ccc(C[C@@H](C[C@H](C)C(=O)OC(C)(C)C)NC(=O)OC(C)(C)C)cc2NC1=O`, for the setting “from (2S,4R)-tert-butyl 5-(3-((S)-2-((S)-2-aminopropanamido)-3-methylbutanamido)-4-hydroxyphenyl)-4-((tert-butoxycarbonyl)amino)-2-methylpentanoate + 4,4′-(((2R,3S)-2,3-bis(2-(2,5-dioxo-2,5-dihydro-1H-pyrrol-1-yl)acetamido)succinyl)bis(azanediyl))-dibutanoic acid?, 24-membered ring”, the ring closure, isolated yield is 62%.

Regarding `C[C@@H](C[C@H](Cc1ccc2c(c1)NC(=O)CCCNC(=O)[C@H](CCCCNC(=O)CCOCCOCCOCCC(=O)NCCOCCOCCC(=O)NCCOCCOCCC(=O)OC(C)(C)C)NC(=O)CCCNC(=O)[C@H](NC(=O)CCN1C(=O)C=CC1=O)[C@H](NC(=O)CCN1C(=O)C=CC1=O)C(=O)NCCCC(=O)O2)NC(=O)OC(C)(C)C)C(=O)OC(C)(C)C`, the ring closure, isolated yield (from C[C@@H](C[C@H](Cc1ccc(O)c(NC(=O)CCCNC(=O)[C@H](CCCCNC(=O)CCOCCOCCOCCC(=O)NCCOCCOCCC(=O)NCCOCCOCCC(=O)OC(C)(C)C)NC(=O)CCCNC(=O)[C@@H](NC(=O)CCN2C(=O)C=CC2=O)[C@@H](NC(=O)CCN2C(=O)C=CC2=O)C(=O)NCCCC(=O)O)c1)NC(=O)OC(C)(C)C)C(=O)OC(C)(C)C, 26-membered ring) is 39%.

Consider `COC(=O)[C@H](Cc1ccc2c(c1)NC(=O)CCCNC(=O)C(NC(=O)CCN1C(=O)C=CC1=O)C(NC(=O)CCN1C(=O)C=CC1=O)C(=O)NCCCC(=O)O2)NC(=O)OC(C)(C)C` (stereo partly shown), for which, for the setting “from 4,4′-((2,3-bis(2-(2,5-dioxo-2,5-dihydro-1H-pyrrol-1-yl)acetamido)-succinyl)bis(azanediyl))dibutanoic acid + (S)-methyl 3-(3-amino-4-hydroxyphenyl)-2-(tert-butoxycarbonylamino)propanoate?, 18-membered ring”, the ring closure, isolated yield was 68%.
